In patent publication US9951021B2, “Compounds for inhibiting c-Myc/Max/DNA complex formation” (NATIONAL CANCER CENTER, priority 2016, dated 2018):

How the values were obtained:
recombinant c-Myc/Max = target: T1, recombinant c-Myc/Max (Homo sapiens, UniProt P01106+P61244); test: Electrophoretic mobility shift assay (EMSA): inhibitory activity on DNA binding of recombinant c-Myc/Max; settings: read-out: protein assay IC50
T1 construct: made in house
How it was run: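 Protein mixture preincubated 5 min at room temperature, compound in DMSO added for 5 min, then biotinylated annealed E-box DNA for 10 min to equilibrium. Complexes resolved on 8% polyacrylamide in 1×TBE (120 V, 1 h), detected with HRP-streptavidin/ECL; protein-DNA complex ratio from band intensity.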

253J = test: Selectivity evaluation, cytotoxicity in 253J; assay type: cell-based; settings: Homo sapiens; 253J (malignant), 72 hours, ATP detection
Protocol: (§1) Commercially available bladder cancer cell lines were treated with trypsin-EDTA and seeded in each well of a 96 well plate, followed by incubation for 24 hours. After incubation, candidate compounds were added to each well at a final concentration of 0 to 2 μM. The compound-treated cells were further incubated for 72 hours. Cell viability was measured using an ATP detection method (CellTiter-Glo® Luminescent Cell Viability Assay, Promega).
(§2) The selectivity of the compounds of the present disclosure to cancer cells was evaluated in the same manner as described in “2. Cell based assay”.
253J: human urinary tract transitional cell carcinoma

UM-UC-3 = test: Selectivity evaluation, cytotoxicity in UM-UC-3; assay type: cell-based; settings: Homo sapiens, UMUC3; UM-UC-3 (malignant), 72 hours, ATP detection
Protocol: as §1, §2
UM-UC-3: human urinary bladder transitional cell carcinoma

Mouse = test: IV and IP single toxicity test; assay type: in vivo; settings: for Percentage (deaths), single toxicity evaluation: Mouse

T1 sequence (P01106 whole entry): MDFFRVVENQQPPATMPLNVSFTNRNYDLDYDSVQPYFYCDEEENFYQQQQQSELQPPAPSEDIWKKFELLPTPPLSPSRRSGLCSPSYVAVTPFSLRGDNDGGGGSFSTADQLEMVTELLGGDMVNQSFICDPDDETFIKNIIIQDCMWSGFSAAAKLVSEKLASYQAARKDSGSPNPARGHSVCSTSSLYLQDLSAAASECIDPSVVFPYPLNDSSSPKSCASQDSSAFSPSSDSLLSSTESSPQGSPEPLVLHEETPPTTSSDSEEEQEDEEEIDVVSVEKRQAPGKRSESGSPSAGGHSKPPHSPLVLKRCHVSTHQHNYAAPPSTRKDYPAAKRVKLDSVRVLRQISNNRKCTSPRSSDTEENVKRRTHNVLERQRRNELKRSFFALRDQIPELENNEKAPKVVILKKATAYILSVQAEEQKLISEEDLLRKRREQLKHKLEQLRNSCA
T1 sequence (P61244 whole entry): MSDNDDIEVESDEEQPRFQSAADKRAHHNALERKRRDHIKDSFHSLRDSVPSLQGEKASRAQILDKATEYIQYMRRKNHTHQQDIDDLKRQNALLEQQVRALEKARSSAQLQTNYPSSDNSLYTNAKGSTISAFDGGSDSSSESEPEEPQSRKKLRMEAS

CC(=O)c1c([S+]([O-])Cc2ccc([N+](=O)[O-])cc2)[nH]c2c(Br)ccc(Cl)c2c1=O (centres unmarked) [Compound 33, 3-acetyl-8-bromo-5-chloro-2-((4-nitrobenzyl)sulfinyl)quinolin-4(1H)-one]
IC50 (recombinant c-Myc/Max): < 1000 nM | IC50 (253J): 1600 nM | IC50 (UM-UC-3): 1600 nM

CC(=O)c1c([S+]([O-])Cc2ccc([N+](=O)[O-])cc2)[nH]c2c(Cl)ccc(Cl)c2c1=O (centres unmarked) [Compound 57, 3-acetyl-5,8-dichloro-2-((4-nitrobenzyl)sulfinyl)quinolin-4(1H)-one]
IC50 (recombinant c-Myc/Max): < 1000 nM

CC(=O)c1c([S+]([O-])Cc2cccc(S(F)(F)(F)(F)F)c2)[nH]c2c(Br)ccc(Cl)c2c1=O (centres unmarked) [Compound 77, 3-acetyl-8-bromo-5-chloro-2-((3-(pentafluoro-λ6-sulfanyl)benzyl)sulfinyl)quinolin-4(1H)-one]
IC50 (recombinant c-Myc/Max): < 1000 nM

CC(=O)c1c([S+]([O-])Cc2ccccc2)nc2c(Br)ccc(Cl)c2c1O (centres unmarked) [Compound 4, 3-acetyl-2-(benzylsulfinyl)-8-bromo-5-chloroquinolin-4(1H)-one]
IC50 (253J): 1100 nM | deaths (Mouse; IV and IP single-dose administration, 40 mpk, 40 mg/kg): No deaths were observed | Percentage (deaths), single toxicity evaluation (Mouse; Female, IP 40 mg/kg): 0 (0/2) % | Percentage (deaths), single toxicity evaluation (Mouse; Female, IV 40 mg/kg): 0 (0/2) % | Percentage (deaths), single toxicity evaluation (Mouse; Male, IP 40 mg/kg): 0 (0/2) % | IC50 (UM-UC-3): 1500 nM

CC(=O)c1c([S+]([O-])Cc2ccc(S(F)(F)(F)(F)F)cc2F)[nH]c2c(Br)ccc(Cl)c2c1=O (centres unmarked) [Compound 69, 3-acetyl-8-bromo-5-chloro-2-((2-fluoro-4-(pentafluoro-16-sulfanyl)benzyl)sulfinyl)quinolin-4(1H)-one]
IC50 (recombinant c-Myc/Max): < 1000 nM

CC(=O)c1c([S+](C)[O-])[nH]c2c(Cl)ccc(Cl)c2c1=O (centres unmarked) [Compound 6, 3-acetyl-5,8-dichloro-2-(methylsulfinyl)quinolin-4(1H)-one]
IC50 (recombinant c-Myc/Max): < 1000 nM

CC(=O)c1c(Sc2ccc(Br)cc2)[nH]c2c(Br)ccc(Cl)c2c1=O [Compound 16, 3-acetyl-8-bromo-2-((4-bromophenyl)thio)-5-chloroquinolin-4(1H)-one]
IC50 (recombinant c-Myc/Max): < 1000 nM
